Results: US11213495B2, “Method and composition for decreasing the psychotomimetic side effect and addictive disorder of ketamine” (NATIONAL HEALTH RESEARCH INSTITUTES, priority 2016, dated 2022)

What was measured:
Format in all cases: in vivo
Male ICR mice [1] = assay: Rotarod test (motor coordination)
Method: Motor coordination was examined using an automated rotarod device (Singa; Technology Co., Ltd, Taiwan) for a maximum of 6 mice. A computer recorded the latency to fall in seconds. During two-three days training period, the mice were first trained on the rotarod at a constant speed of 20 rotations per minute (rpm) until all of the mice were able to spend at least 3 min on the road. The test drug (0, 30 and 100 mg/kg) was administered 30 min prior to the ketamine (30 mg/kg) or saline injection. Then, the mice were tested 10, 15, 20, 25, and 30 min after ketamine injection.

Male ICR mice [2] = assay: Open field test / locomotor activity
Method: To evaluate the effect of DMG on ketamine-induced locomotor hyperactivity, the animals were moved from the home cage, weighed and placed into an activity cage (Columbus Auto-Track System, Version 3.0 A, Columbus Institute, Columbus, Ohio, USA) for 2 hours. Thereafter, the test drug (0, 30, and 100 mg/kg) was given 30 min prior to ketamine (30 mg/kg) or saline. The distance (cm) traveled was recorded for totally 180 min. A 70% alcohol solution was used to clean the inner surface of all the testing apparatus between trials to remove any potentially interfering odors left by the previous mouse.

Male ICR mice [3] = assay: Forced swim test (FST): duration of immobility, struggling and swimming
Method: (§1) FST was conducted for two consecutive days. Mice were placed in a Plexiglas cylinder (33.5 cm height, 20 cm diameter) filled with 25±2° C. water to a height of 18-20 cm. For the first exposure, mice were placed in the water for 15 min (pre-test session) followed by […]. Twenty-four hours later (day 1 test session), various doses of test drug (at 0, 30 and 100 mg/kg) was administered 30 min prior to the ketamine (10 mg/kg) or saline. Then, the mice were tested 30 min after ketamine injection which placed in the water again for a 6 min session (test session), the first 2 minutes has elapsed. Immobility was assigned when no additional activity was observed other than that required to keep the head above the water.
This experiment included a control group and various doses of ketamine (3, 10, 15 mg/kg), betaine (10, 20, 30 mg/kg) and betaine (10, 20, 30 mg/kg) pretreatment prior to ketamine (fixed dose at 10 mg/kg). […] There was no significant effect of test session or interaction.

Male ICR mice [4] = assay: Social interaction test
Method: This protocol was modified from the original social interaction test (Lin et al. 2010; Qiao et al. 2001). The social interaction between pairs of mice was examined in an open-field box (35×35×30 cm) under normal room lighting. The paired mice were randomly assigned from different home cages with the same drug treatment. […] Five minutes later, each pair of unfamiliar mice was placed in the apparatus for 10 min and the total time that a pair spent in social interaction and specific social interaction behaviors (sniffing the partner, following, mounting, and crawling under or over the partner) were recorded by an observer who was blind to the drug treatments.

Male ICR mice [5] = assay: Novelty suppressed feeding test (NSF); conditions: 1 h prior to test, vs saline-treated mice
Method: NSF test consisted of food-depriving mice overnight (24 hours). The test drug (10, 20 and 30 mg/kg), ketamine (10 mg/kg) or saline was administered 1 h prior to the test. At the time of testing, a single food pellet placed in the middle of a novel environment (a test box 40×40×40 cm). The latency to start feeding was used as a measure for depressive-like or anxiety-like behavior.

Male ICR mice [6] = assay: Emergence test
Method: The emergence test was examined in a test box (35×35×30 cm) contained an aluminum cylinder (10 cm deep×6.5 cm diameter) located lengthwise along one wall, with the open end 10 cm from the corner. The test drug (0, 30 and 100 mg/kg) or ketamine (10 mg/kg) was administered 30 min prior to the test. Mice were placed into the cylinder and tested for 10 min and scored three behavioral parameters: the latency to leave the cylinder, the number of entries into the cylinder and the total time spent inside the cylinder.

Male ICR mice [7] = assay: Forced swimming test (FST) scored by time-sampling method; conditions: day 1 and 8, post hoc vs control
Method: as §1
The acute and sustained effects of various doses of ketamine (3, 10, 15 mg/kg) and betaine (10, 20, 30 mg/kg) on FST were assessed on day 1 and 8, respectively (FIGS. 1A and 1B). […] There was no significant effect of test session or interaction.

[8] = ketamine 15 mg/kg, day 7 retest session, vs control
[9] = betaine 30 and 100 mg/kg alone, 60 min after administration
[10] = betaine 30 mg/kg pretreatment prior to ketamine 10 mg/kg, day 1 test session

With `CNC1(c2ccccc2Cl)CCCCC1=O` (racemic) [ketamine] the “latency to stay on the rotarod” value (Male ICR mice [1]; ketamine 30 mg/kg, 10-30 min after administration) was “significantly decreased”, the “total travel distances after ketamine administration” value (Male ICR mice [2]; ketamine 30 mg/kg, measured for 30 min) was “increased” and the “duration of immobility in FST” value (Male ICR mice [3]; ketamine 10 mg/kg, DMG experiment, tested 30 min after ketamine) was “significantly decreased”. The “duration of struggling in FST” value (Male ICR mice [3]; ketamine 15 mg/kg, day 1 test session, vs control) was “significantly increased”, the “duration of struggling in FST” value (Male ICR mice [3]; [8]) was “significantly increased” and the “duration of swimming in FST” value (Male ICR mice [3]; [8]) was “significantly increased”. The “duration of immobility in FST” value (Male ICR mice [3]; ketamine 15 mg/kg, day 7 retest session, vs vehicle control) was “significantly decreased”, the “duration of struggling in FST” value (Male ICR mice [3]; ketamine 15 mg/kg, over both sessions) was “significantly increased” and the “duration of immobility in FST” value (Male ICR mice [3]; ketamine 3, 10 and 15 mg/kg, day 1 test session, vs vehicle control) was “significantly reduced”. The “duration of swimming in FST” value (Male ICR mice [3]; ketamine 10 and 15 mg/kg, day 1 test session, vs control) was “significantly increased”, the “duration of immobility in FST” value (Male ICR mice [3]; ketamine 10 and 15 mg/kg, main effect over both sessions) was “significantly decreased” and the “duration of swimming in FST” value (Male ICR mice [3]; ketamine 10 and 15 mg/kg, over both sessions) was “significantly increased”. For the same compound, the social interaction duration (Male ICR mice [4]; ketamine 30 mg/kg) was “reduction”, the “latency to feed in the NSF” value (Male ICR mice [5]; ketamine 10 mg/kg) was “significantly reduced” and the “total time spent inside the cylinder” value (Male ICR mice [6]; ketamine 10 mg/kg, post hoc) was “significantly reduced”. For the same compound, the “count of immobility in FST” value (Male ICR mice [7]; ketamine 3, 10 and 15 mg/kg) was “significantly decreased”.
With `C[N+](C)(C)CC(=O)O` [betaine] the “ketamine-induced motor in coordination” value (Male ICR mice [1]; betaine 30 and 100 mg/kg i.p. 30 min prior to ketamine 30 mg/kg) was “significantly reduced”, the ketamine-induced locomotor hyperactivity (Male ICR mice [2]; betaine 30 and 100 mg/kg 30 min prior to ketamine 30 mg/kg) was “not affected” and the time in center (Male ICR mice [2]; [9]) was “did not affect”. The “travel distances (locomotor activity)” value (Male ICR mice [2]; [9]) was “did not affect”, the “duration of immobility in FST compared with ketamine (10 mg/kg) alone” value (Male ICR mice [3]; [10]) was “significantly shorter duration of immobility” and the “duration of swimming in FST compared with ketamine (10 mg/kg)” value (Male ICR mice [3]; [10]) was “longer duration of swimming”. The “duration of immobility in FST compared with ketamine (10 mg/kg) alone” value (Male ICR mice [3]; betaine 30 mg/kg pretreatment prior to ketamine 10 mg/kg, over both sessions) was “significantly shorter duration of immobility”, the “duration of struggling in FST” value (Male ICR mice [3]; betaine 30 mg/kg, day 7 retest session, vs control) was “significantly increased” and the “duration of immobility in FST” value (Male ICR mice [3]; betaine 10, 20 and 30 mg/kg pretreatment prior to ketamine 10 mg/kg, day 7 retest session, vs vehicle control) was “significantly decreased”. The “duration of immobility in FST” value (Male ICR mice [3]; betaine 10, 20 and 30 mg/kg pretreatment prior to ketamine 10 mg/kg, main effect over both sessions) was “significantly decreased”, the “duration of immobility in FST” value (Male ICR mice [3]; betaine 10, 20 and 30 mg/kg prior to ketamine 10 mg/kg, day 1 test session, vs vehicle control) was “significantly reduced” and the “duration of swimming in FST” value (Male ICR mice [3]; betaine 10, 20 and 30 mg/kg prior to ketamine 10 mg/kg, day 7 retest session, vs control) was “significantly increased”. The “duration of swimming in FST” value (Male ICR mice [3]; betaine 20 and 30 mg/kg, day 1 test session, vs control) was “significantly increased”, the “duration of immobility in FST” value (Male ICR mice [3]; betaine 20 and 30 mg/kg, day 1 test session, vs vehicle control) was “significantly reduced” and the “duration of immobility in FST” value (Male ICR mice [3]; betaine 20 and 30 mg/kg, day 7 retest session, vs vehicle control) was “significantly decreased”. The “duration of immobility in FST” value (Male ICR mice [3]; betaine 20 and 30 mg/kg, main effect over both sessions) was “significantly decreased”, the “duration of struggling in FST” value (Male ICR mice [3]; betaine 20 and 30 mg/kg, over both sessions) was “significantly increased” and the “reduction in social interaction duration induced by ketamine” value (Male ICR mice [4]; betaine 30 and 100 mg/kg i.p. prior to ketamine 30 mg/kg) was “significantly attenuated”. For the same compound, the “latency to feed in the NSF” value (Male ICR mice [5]; betaine 30 mg/kg i.p.) was “significantly reduced”, the “anxiolytic effect in the emergence test” value (Male ICR mice [6]; betaine 30 and 100 mg/kg) was “did not show anxiolytic effect” and the “count of immobility in FST” value (Male ICR mice [7]; betaine 20 and 30 mg/kg) was “significantly decreased”.
